Measured values as given in patent US8937065B2, “Compositions and methods for modulating a kinase” (Clevexel Pharma, priority 2011, dated 2015).

Tests used:
[1] = test system: B cell receptor NFAT-bla RA1; assay: B cell receptor NFAT-bla RA1 inhibition (goat anti-human IgM stimulated, Ramos cells); settings: read-out: IC50 B cells mechanism-based: Ramos cells IgM stimulated NFAT activity
Experimental: The inhibition of B cell receptor NFAT-bla RA 1 (activated by goat anti-human IgM, which stimulates the SYK signaling pathway) by several compounds was determined using the Screening Protocol and Assay Conditions (Invitrogen, Madison, Wis.). The assays were performed according to manufacturer's protocols. See Example 4, Cell-line Specific Protocols B cell receptor activity in Ramos cells for details.
Mechanism-based inhibition assays using compound 7A (Table 1) were performed using GeneBLAzer® Technology (Invitrogen Corporation), according to manufacturer specifications. […] In this state, excitation of the coumarin results in fluorescence resonance energy transfer to the fluorescein moiety and emission of green light. […] Excitation of the coumarin in the presence of Beta-lactamase activity results in a blue fluorescence signal. […]
(§1) An activator assay screen was run to obtain the EC80 concentration of the known activator to add in step 3. • 1. […] 4 μL of the EC80 concentration of activator, as determined in an Activator assay, was added to all wells containing compound and known inhibitor to bring the final assay volume to 40 μL. • 4. […] The assay plate was read on a fluorescence plate reader (Tecan Safire) and the data is analyzed. […]
NFAT-bla RA1 cells were thawed. […] The plate was read on a fluorescence plate reader.

[2] = test system: IL-2-stimulated STAT5 activity in CTLL-2 cells; assay: IL-2-stimulated STAT5 activity in CTLL-2 cells (Irf1-bla CTLL-2); format: cell-based; settings: Mus musculus, mCTLL-2, IL-2 stimulated, read-out: IC50 T cells mechanism-based: mCTLL-2 IL-2 Stimulated STAT5 activity
Experimental: Mechanism-based inhibition assays using compound 7A (Table 1) were performed using GeneBLAzer® Technology (Invitrogen Corporation), according to manufacturer specifications. Briefly, GeneBLAzer® Technology uses a mammalian-optimized Beta-lactamase reporter gene (bla) combined with a FRET-enabled substrate to provide reliable and sensitive detection in intact cells. Cells were loaded with an engineered fluorescent substrate containing two fluorophores, coumarin and fluorescein. Without bla expression, the substrate molecule remains intact. In this state, excitation of the coumarin results in fluorescence resonance energy transfer to the fluorescein moiety and emission of green light. […] Excitation of the coumarin in the presence of Beta-lactamase activity results in a blue fluorescence signal. […]
as §1
Irf1-bla CTLL-2 cells were thawed and prepared as described above for the Activator Screen. […] The plate was read on a fluorescence plate reader.

[3] = test system: Ramos cells; assay: Proliferation of Ramos cells (Cell Titer-Glo); settings: Homo sapiens, B cells, outcome-based, read-out: IC50 Proliferation Ramos cells (Burkitt's lymphoma)
[4] = test system: NALM-6 cells; assay: Proliferation of NALM-6 cells (cell proliferation index, flow cytometry); settings: Homo sapiens, B cells, outcome-based, read-out: IC50 Proliferation NALM-6 cells (ALL)
Experimental: Cell proliferation of the human B cell precursor leukemia tumor cell line NALM-6 was measured by a cell proliferation index assay. This assay was based on the dilution rate of a fluorescent membrane marker which is directly linked to the cell division. Briefly, the assay was performed by loading the cells with a non-toxic fluorescent phospholipid analog before the seeding. The probe inserts stably into the plasmic membrane and was distributed between daughter cells after division. Flow cytometry analysis of the fluorescent probe was performed directly after the loading of the cells and after 96 hours of culture. The dilution rate of the fluorescent probe at the single cell level was directly correlated to the number of cell divisions. All experiments were performed in triplicate.
Detection of cellular events was performed in triplicate in 96 well-plates after 72 hours of treatment by automated flow cytometry. Non-linear regressions were performed with GraphPad Prism 4.01 software.
Cells were previously thawed and amplified in standard culture conditions (37° C., 5% CO2). NALM-6 cells were cultivated in RPMI 1640+10% inactivated Fetal Bovine Serum. […]
Day 4: After 72 hours of treatment, the cells were analyzed by automated flow cytometry.

[5] = molecular target: hERG (Homo sapiens, UniProt Q12809); assay: hERG IC50
Sequence of hERG (Q12809 whole entry): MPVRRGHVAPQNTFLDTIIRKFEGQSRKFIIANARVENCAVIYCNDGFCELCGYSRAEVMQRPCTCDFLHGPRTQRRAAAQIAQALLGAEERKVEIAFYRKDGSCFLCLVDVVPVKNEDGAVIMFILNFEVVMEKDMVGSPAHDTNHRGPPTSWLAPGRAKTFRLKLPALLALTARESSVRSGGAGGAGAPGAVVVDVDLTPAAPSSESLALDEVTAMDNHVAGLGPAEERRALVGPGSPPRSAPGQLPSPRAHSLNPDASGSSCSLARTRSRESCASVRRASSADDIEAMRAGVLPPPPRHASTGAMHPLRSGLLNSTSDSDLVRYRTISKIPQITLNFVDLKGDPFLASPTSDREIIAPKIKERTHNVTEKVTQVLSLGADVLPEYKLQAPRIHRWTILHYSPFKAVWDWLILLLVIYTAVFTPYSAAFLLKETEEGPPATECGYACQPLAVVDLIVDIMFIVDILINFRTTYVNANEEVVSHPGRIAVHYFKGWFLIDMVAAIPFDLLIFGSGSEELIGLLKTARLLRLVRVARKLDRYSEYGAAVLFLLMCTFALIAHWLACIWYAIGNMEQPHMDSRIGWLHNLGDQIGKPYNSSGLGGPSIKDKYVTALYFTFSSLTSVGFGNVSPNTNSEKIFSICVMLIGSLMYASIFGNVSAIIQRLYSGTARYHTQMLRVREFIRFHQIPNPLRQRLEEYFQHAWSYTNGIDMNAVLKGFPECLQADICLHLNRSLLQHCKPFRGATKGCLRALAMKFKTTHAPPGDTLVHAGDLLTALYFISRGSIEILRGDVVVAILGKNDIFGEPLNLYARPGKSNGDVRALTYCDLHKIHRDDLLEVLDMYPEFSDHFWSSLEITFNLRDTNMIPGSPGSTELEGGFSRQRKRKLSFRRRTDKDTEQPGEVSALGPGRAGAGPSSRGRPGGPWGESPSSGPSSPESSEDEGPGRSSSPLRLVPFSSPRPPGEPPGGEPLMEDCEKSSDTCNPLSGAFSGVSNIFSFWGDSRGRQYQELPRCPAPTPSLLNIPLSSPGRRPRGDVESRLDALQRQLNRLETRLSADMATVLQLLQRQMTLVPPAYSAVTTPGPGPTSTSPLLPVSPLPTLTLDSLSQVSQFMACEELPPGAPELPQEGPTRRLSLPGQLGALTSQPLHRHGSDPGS

[6] = 6-day maximum tolerated dose safety study in female ICR nude mice; format: in vivo
Experimental: Compounds of the invention are safe for administration. For example, excellent safety data was obtained in a 6-day maximum tolerated dose study at 100 mg/kg and 300 mg/kg of compound 7A, PO administered to six to eight-week old female ICR nude mice.

[7] = 100 mg/kg and 300 mg/kg PO, 6-day study, female ICR nude mice

For `O=C(CN1CCOCC1)Nc1cccc(-c2nc(-c3c[nH]c(C(=O)N4CCCC4)c3)cs2)c1` [7A, 2-morpholino-N-(3-(4-(5-(pyrrolidine-1-carbonyl)-1H-pyrrol-3-yl)thiazol-2-yl)phenyl)acetamide], the IC50 [1] was 124 nM, the IC50 [2] was 6200 nM and the IC50 [3] was 534 nM. For the same compound, the IC50 [4] was 480 nM, the IC50 [5] was > 10000 nM and the “change in food consumption” value [6, 7] was “no change in food consumption”. The clinical observation [6, 7] was “no abnormalities in clinical observation”, the “necropsy (internal and external)” value [6, 7] was “normal” and the weight loss [6, 7] was “no weight loss”. For the same compound, the “Individual food consumption (g) Day 1” value ([6]; PO-High 300 mg/kg) was 4.45 g, the “Individual food consumption (g) Day 6” value ([6]; PO-High 300 mg/kg) was 5.13 g and the “Individual food consumption (g) Day 1” value ([6]; PO-Low 100 mg/kg) was 4.61 g. For the same compound, the “Individual food consumption (g) Day 6” value ([6]; PO-Low 100 mg/kg) was 5.44 g.
